Data from ChEMBL document CHEMBL4049381 (Medchemcomm, 2016).

How the values were obtained:
[1] = target: T1, Solute carrier organic anion transporter family member 2B1 (Homo sapiens, UniProt O94956, H618Q); assay: Drug uptake assessed as human OATP2B1 H618Q mutant expressed in Xenopus laevis oocytes mediated drug accumulation at 1 uM after 120 mins by LC-MS/MS method relative to wild type protein; format: ADME, cell-based; conditions: 2 h
[2] = target: T2, Solute carrier organic anion transporter family member 2B1 (Homo sapiens, UniProt O94956); assay: Drug uptake assessed as human OATP2B1 expressed in Xenopus laevis oocyte mediated drug accumulation per 120 mins per oocyte at 1 uM by LC-MS/MS method; format: ADME; conditions: 2 h
T2 sequence (O94956 whole entry): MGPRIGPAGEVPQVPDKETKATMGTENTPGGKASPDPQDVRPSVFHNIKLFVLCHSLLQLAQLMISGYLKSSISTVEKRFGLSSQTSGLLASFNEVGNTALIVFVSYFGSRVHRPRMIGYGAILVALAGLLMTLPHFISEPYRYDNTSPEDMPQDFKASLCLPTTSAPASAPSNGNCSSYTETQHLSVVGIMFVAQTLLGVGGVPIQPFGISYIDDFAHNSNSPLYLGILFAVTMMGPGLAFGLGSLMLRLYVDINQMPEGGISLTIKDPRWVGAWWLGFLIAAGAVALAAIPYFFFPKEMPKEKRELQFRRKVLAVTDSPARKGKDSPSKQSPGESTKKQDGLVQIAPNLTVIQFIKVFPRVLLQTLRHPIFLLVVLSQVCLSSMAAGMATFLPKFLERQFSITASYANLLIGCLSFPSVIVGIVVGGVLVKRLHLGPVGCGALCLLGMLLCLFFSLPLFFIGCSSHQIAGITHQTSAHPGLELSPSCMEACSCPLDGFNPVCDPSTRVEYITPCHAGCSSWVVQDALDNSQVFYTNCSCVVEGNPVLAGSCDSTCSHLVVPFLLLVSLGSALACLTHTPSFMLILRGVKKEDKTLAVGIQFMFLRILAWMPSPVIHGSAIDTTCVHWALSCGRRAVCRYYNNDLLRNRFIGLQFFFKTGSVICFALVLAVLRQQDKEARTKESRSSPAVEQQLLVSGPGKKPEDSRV

[3] = target: T3, Solute carrier organic anion transporter family member 2B1 (Homo sapiens, UniProt O94956, H579Q); assay: Drug uptake assessed as human OATP2B1 H579Q mutant expressed in Xenopus laevis oocyte mediated drug accumulation at 1 uM after 120 mins by LC-MS/MS method relative to wild type protein; format: ADME; conditions: 2 h
T3 sequence (O94956 whole entry T392I/H579Q): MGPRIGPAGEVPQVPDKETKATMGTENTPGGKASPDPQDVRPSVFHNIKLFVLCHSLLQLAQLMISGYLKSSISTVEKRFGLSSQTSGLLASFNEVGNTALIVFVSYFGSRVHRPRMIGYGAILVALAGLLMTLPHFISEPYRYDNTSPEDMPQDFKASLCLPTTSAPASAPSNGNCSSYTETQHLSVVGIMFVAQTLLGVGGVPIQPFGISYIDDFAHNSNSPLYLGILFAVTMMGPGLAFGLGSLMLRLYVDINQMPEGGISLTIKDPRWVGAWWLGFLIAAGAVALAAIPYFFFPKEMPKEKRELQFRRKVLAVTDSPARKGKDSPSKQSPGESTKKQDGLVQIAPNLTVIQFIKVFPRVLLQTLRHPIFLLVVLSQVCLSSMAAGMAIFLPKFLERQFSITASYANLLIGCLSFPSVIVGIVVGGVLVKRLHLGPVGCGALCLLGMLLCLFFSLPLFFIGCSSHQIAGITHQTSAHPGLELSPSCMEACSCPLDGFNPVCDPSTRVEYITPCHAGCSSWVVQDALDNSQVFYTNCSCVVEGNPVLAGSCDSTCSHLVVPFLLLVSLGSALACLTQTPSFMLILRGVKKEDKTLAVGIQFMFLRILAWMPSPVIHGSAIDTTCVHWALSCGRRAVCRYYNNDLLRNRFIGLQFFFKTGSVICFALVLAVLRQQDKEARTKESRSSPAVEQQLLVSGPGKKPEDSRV

[4] = target: T4, Solute carrier organic anion transporter family member 2B1 (Homo sapiens, UniProt O94956, R607A); assay: Drug uptake assessed as human OATP2B1 R607A mutant expressed in Xenopus laevis oocyte mediated drug accumulation at 1 uM after 120 mins by LC-MS/MS method relative to wild type protein; format: ADME; conditions: 2 h
T4 sequence (O94956 whole entry T392I/R607A): as the sequence (O94956 whole entry T392I/H579Q) above, with Q579H, R607A counted along it

[5] = target: T1, Solute carrier organic anion transporter family member 2B1; assay: Drug uptake assessed as human OATP2B1 H618Q mutant expressed in Xenopus laevis oocyte mediated drug accumulation at 1 uM after 180 mins by LC-MS/MS method relative to wild type protein; format: ADME; conditions: 3 h
[6] = target: T2, Solute carrier organic anion transporter family member 2B1; assay: Drug uptake assessed as human OATP2B1 expressed in Xenopus laevis oocyte mediated drug accumulation per 180 mins per oocyte at 1 uM by LC-MS/MS method; format: ADME; conditions: 3 h
[7] = target: T4, Solute carrier organic anion transporter family member 2B1; assay: Drug uptake assessed as human OATP2B1 R607A mutant expressed in Xenopus laevis oocyte mediated drug accumulation at 1 uM after 180 mins by LC-MS/MS method relative to wild type protein; format: ADME; conditions: 3 h
[8] = target: T3, Solute carrier organic anion transporter family member 2B1; assay: Drug uptake assessed as human OATP2B1 H579Q mutant expressed in Xenopus laevis oocyte mediated drug accumulation at 1 uM after 180 mins by LC-MS/MS method relative to wild type protein; format: ADME; conditions: 3 h
[9] = target: T3, Solute carrier organic anion transporter family member 2B1; assay: Drug uptake assessed as human OATP2B1 H579Q mutant expressed in Xenopus laevis oocyte mediated drug accumulation at 0.003 uM after 30 mins by LC-MS/MS method relative to wild type protein; format: ADME; conditions: 0.5 h
[10] = target: T4, Solute carrier organic anion transporter family member 2B1; assay: Drug uptake assessed as human OATP2B1 R607A mutant expressed in Xenopus laevis oocyte mediated drug accumulation at 0.003 uM after 30 mins by LC-MS/MS method relative to wild type protein; format: ADME; conditions: 0.5 h
[11] = target: T2, Solute carrier organic anion transporter family member 2B1; assay: Drug uptake assessed as human OATP2B1 expressed in Xenopus laevis oocyte mediated drug accumulation per 30 mins per oocyte at 0.003 uM by LC-MS/MS method; format: ADME; conditions: 0.5 h
[12] = target: T1, Solute carrier organic anion transporter family member 2B1; assay: Drug uptake assessed as human OATP2B1 H618Q mutant expressed in Xenopus laevis oocyte mediated drug accumulation at 0.003 uM after 30 mins by LC-MS/MS method relative to wild type protein; format: ADME; conditions: 0.5 h
[13] = tested on: C[C@]12CC[C@@H]3c4ccc(OS(=O)(=O)O)cc4CC[C@H]3[C@@H]1CCC2=O; assay: Substrate activity at human OATP2B1 H618Q mutant high affinity site expressed in Xenopus laevis oocytes assessed as Km for transporter-mediated drug accumulation after 15 mins by Eadie-Hofstee plot method; format: ADME, cell-based
[14] = tested on: C[C@]12CC[C@@H]3c4ccc(OS(=O)(=O)O)cc4CC[C@H]3[C@@H]1CCC2=O; assay: Substrate activity at human OATP2B1 H618Q mutant low affinity site expressed in Xenopus laevis oocytes assessed as Km for transporter-mediated drug accumulation after 15 mins by Eadie-Hofstee plot method; format: ADME, cell-based
[15] = tested on: C[C@]12CC[C@@H]3c4ccc(OS(=O)(=O)O)cc4CC[C@H]3[C@@H]1CCC2=O; assay: Substrate activity at human OATP2B1 H579Q mutant high affinity site expressed in Xenopus laevis oocytes assessed as Km for transporter-mediated drug accumulation after 15 mins by Eadie-Hofstee plot method; format: ADME, cell-based
[16] = substrate: C[C@]12CC[C@@H]3c4ccc(OS(=O)(=O)O)cc4CC[C@H]3[C@@H]1CCC2=O; assay: Substrate activity at human OATP2B1 high affinity site expressed in Xenopus laevis oocytes assessed as Km for transporter-mediated drug accumulation after 15 mins by Eadie-Hofstee plot method; format: ADME, cell-based
[17] = substrate: CC[C@H](C)C(=O)O[C@H]1C[C@H](O)C=C2C=C[C@H](C)[C@H](CC[C@@H](O)C[C@@H](O)CC(=O)O)[C@H]21; assay: (§1) Drug uptake assessed as OATP2B1 high affinity site (unknown origin)-mediated drug uptake; format: ADME, Homo sapiens
[18] = substrate: C[C@]12CC[C@@H]3c4ccc(OS(=O)(=O)O)cc4CC[C@H]3[C@@H]1CCC2=O; assay: as §1; format: ADME, Homo sapiens
[19] = substrate: O=C(O)c1cc(/N=N/c2ccc(S(=O)(=O)Nc3ccccn3)cc2)ccc1O; assay: as §1; format: ADME, Homo sapiens
[20] = substrate: C[C@]12CC[C@@H]3c4ccc(OS(=O)(=O)O)cc4CC[C@H]3[C@@H]1CCC2=O; assay: Substrate activity at human OATP2B1 low affinity site expressed in Xenopus laevis oocytes assessed as Km for transporter-mediated drug accumulation after 15 mins by Eadie-Hofstee plot method; format: ADME, cell-based
[21] = substrate: CC[C@H](C)C(=O)O[C@H]1C[C@H](O)C=C2C=C[C@H](C)[C@H](CC[C@@H](O)C[C@@H](O)CC(=O)O)[C@H]21; assay: (§2) Drug uptake assessed as OATP2B1 low affinity site (unknown origin)-mediated drug uptake; format: ADME, Homo sapiens
[22] = substrate: C[C@]12CC[C@@H]3c4ccc(OS(=O)(=O)O)cc4CC[C@H]3[C@@H]1CCC2=O; assay: as §2; format: ADME, Homo sapiens

T1 sequence (O94956 whole entry T392I/H618Q): as the sequence (O94956 whole entry T392I/H579Q) above, with Q579H, H618Q counted along it

Molecule: CC(C)(C(=O)O)c1ccc(C(O)CCCN2CCC(C(O)(c3ccccc3)c3ccccc3)CC2)cc1 (stereo not given) [FEXOFENADINE]
- Drug uptake [1]: 121%
- Drug uptake [2]: 0.056 µL
- Drug uptake [3]: 147%
- Drug uptake [4]: 28.5%

Molecule: CC[C@H](C)C(=O)O[C@H]1C[C@H](O)C=C2C=C[C@H](C)[C@H](CC[C@@H](O)C[C@@H](O)CC(=O)O)[C@H]21 [PRAVASTATIN]
- Drug uptake [5]: 40%
- Drug uptake [6]: 0.196 µL
- Drug uptake [7]: 0.2%
- Drug uptake [8]: 32.5%

Molecule: CCCCC[C@H](O)/C=C/[C@H]1[C@H](O)CC(=O)[C@@H]1C/C=C\CCCC(=O)O [DINOPROSTONE]
- Drug uptake [9]: 138%
- Drug uptake [10]: 45.3%
- Drug uptake [11]: 0.461 µL
- Drug uptake [12]: 97.4%

Molecule: Solute carrier organic anion transporter family member 2B1 (Homo sapiens; H618Q)
- Km [13]: 0.149 µM
- Km [14]: 91.1 µM

Molecule: O=C(O)c1cc(/N=N/c2ccc(S(=O)(=O)Nc3ccccn3)cc2)ccc1O [SULFASALAZINE]
- Drug uptake [1]: 22.2%
- Drug uptake [2]: 1.934 µL
- Drug uptake [3]: 41%
- Drug uptake [4]: 7.57%

Molecule: Solute carrier organic anion transporter family member 2B1 (Homo sapiens; H579Q)
- Km [15]: 0.18 µM

Molecule: CC(C)c1nc(N(C)S(C)(=O)=O)nc(-c2ccc(F)cc2)c1/C=C/[C@@H](O)C[C@@H](O)CC(=O)O [ROSUVASTATIN]
- Drug uptake [1]: 33.1%
- Drug uptake [2]: 2.951 µL
- Drug uptake [3]: 39.8%
- Drug uptake [4]: 5.79%

B1: Solute carrier organic anion transporter family member 2B1 (Homo sapiens) (protein)
chain: MGPRIGPAGEVPQVPDKETKATMGTENTPGGKASPDPQDVRPSVFHNIKLFVLCHSLLQLAQLMISGYLKSSISTVEKRFGLSSQTSGLLASFNEVGNTALIVFVSYFGSRVHRPRMIGYGAILVALAGLLMTLPHFISEPYRYDNTSPEDMPQDFKASLCLPTTSAPASAPSNGNCSSYTETQHLSVVGIMFVAQTLLGVGGVPIQPFGISYIDDFAHNSNSPLYLGILFAVTMMGPGLAFGLGSLMLRLYVDINQMPEGGISLTIKDPRWVGAWWLGFLIAAGAVALAAIPYFFFPKEMPKEKRELQFRRKVLAVTDSPARKGKDSPSKQSPGESTKKQDGLVQIAPNLTVIQFIKVFPRVLLQTLRHPIFLLVVLSQVCLSSMAAGMATFLPKFLERQFSITASYANLLIGCLSFPSVIVGIVVGGVLVKRLHLGPVGCGALCLLGMLLCLFFSLPLFFIGCSSHQIAGITHQTSAHPGLELSPSCMEACSCPLDGFNPVCDPSTRVEYITPCHAGCSSWVVQDALDNSQVFYTNCSCVVEGNPVLAGSCDSTCSHLVVPFLLLVSLGSALACLTHTPSFMLILRGVKKEDKTLAVGIQFMFLRILAWMPSPVIHGSAIDTTCVHWALSCGRRAVCRYYNNDLLRNRFIGLQFFFKTGSVICFALVLAVLRQQDKEARTKESRSSPAVEQQLLVSGPGKKPEDSRV
- Km [16]: 0.463 µM
- Km [17]: 6.25 µM
- Km [18]: 0.1 µM
- Km [19]: 1.73 µM
- Km [20]: 51.4 µM
- Km [21]: 225 µM
- Km [22]: 29.9 µM
